Experimental data reported in patent publication US20260158172A1, “CELL DEATH METHOD USING CRISPR/CAS SYSTEM HAVING SINGLE-STRAND BREAK ACTIVITY AND PARP INHIBITOR” (INSTITUTE FOR BASIC SCIENCE, priority 2023, published 2026).

Tested on: HCT-116 tumors
Assay: Tumor growth inhibition experiment in HCT-116 tumor xenograft mouse model
Format: in vivo
Settings: for Volume of Tumor (mm^3, Average, n = 4): HCT-116 xenograft, BALB/c nude mice, intratumoral injection every two days, eight injections, olaparib 28.5 μg
Experimental: For the delivery of RNP, lipid nanoparticles (LNPs) were prepared using an ethanol dilution method. All lipids (the molar ratio of C12-200/DOPE/cholesterol/DMG-PEG/DOTAP in the LNPs was fixed at 35/16/46.5/2.5/11.11) were dissolved in ethanol. RNPs (with a molar ratio of sgRNA to Cas9 protein of 1:1) were dissolved in PBS (pH 7.4). The two solutions were rapidly mixed by pipetting at a PBS-to-ethanol ratio of 3:1 (v/v) and a total lipid-to-sgRNA ratio of 20:1 (w/w), followed by incubation at room temperature for 15 minutes. For in vivo experiments, the RNP-loaded LNP formulation was purified by dialysis against PBS for 2 hours using a dialysis kit (Pur-A-Lyzer Midi Dialysis Kits, MWCO 3.5 kDa) and then concentrated using Amicon Ultra-15 centrifugal filters (MWCO 50 kDa), followed by intratumoral injection (50 μg of sgRNA-loaded LNP per injection). The above C12-200 was purchased from Cayman Chemical. The above DOPE, DOTAP, and DMG-PEG (MW 2000) were purchased from Avanti Polar Lipids. The above Cholesterol, the Pur-A-Lyzer Midi Dialysis Kit (MWCO, 3.5 kDa), and the Amicon Ultra-15 centrifugal filters (MWCO, 50 kDa) were purchased from Sigma. All chemicals were used without further purification.
Female BALB/c nude mice (5 weeks old) were purchased from Orient Bio and used for all animal experiments. The mice were handled in accordance with the guidelines of the Institutional Animal Care and Use Committee of Ulsan National Institute of Science and Technology ([…]-23-09). In the case of the xenograft model, 5×10^6 HCT116 cells stably expressing Cas9WT were suspended in 60 μL of PBS (pH 7.4) and mixed with 60 μL of Matrigel (BD Bioscience), followed by subcutaneous injection into the flank of each mouse. Tumor volume and body weight were measured every two days. Tumor volume was calculated using the following formula.
In the above formula, V represents the volume, a represents the length of the long axis, and b represents the length of the short axis.
When the tumor volume reached approximately 80 mm^3, the mice were randomly divided into multiple groups for experimentation.
To evaluate the antitumor efficacy of the administered materials in each group, mice bearing tumors established according to Experimental Example 1.11 were anesthetized with 1.5% isoflurane, and the administered material (PBS or LNP) was intratumorally injected every two days. A total of eight injections were performed over a period of 14 days, and the mice were sacrificed on day 25.
The tumor growth inhibition rate was calculated using the following formula.
Here, VDay0,treatment and VDay24,treatment represent the tumor volumes of the treatment group on day 0 and day 24, respectively, and VDay0,control and VDay24,control represent the tumor volumes of the control group administered with PBS on day 0 and day 24, respectively.
The tumor xenograft mouse model prepared according to Experimental Example 1.10 was randomly divided into four groups. Then, a PARP inhibitor and a CRISPR/nCas composition for cell death were administered according to Experimental Example 1.11 to confirm tumor growth inhibition effects. Specifically, 28.5 μg of olaparib diluted in PBS and the CRISPR/nCas composition for cell death were administered.

In the case of O=C(c1cc(Cc2n[nH]c(=O)c3ccccc23)ccc1F)N1CCN(C(=O)C2CC2)CC1 [Olaparib, olaparib], the “Volume of Tumor (mm^3, Average, n = 4)” value (Day 0) is reported as 82.1 mm^3, the “Volume of Tumor (mm^3, Average, n = 4)” value (Day 2) is reported as 117.0 mm^3 and the “Volume of Tumor (mm^3, Average, n = 4)” value (Day 4) is reported as 172.6 mm^3. The “Volume of Tumor (mm^3, Average, n = 4)” value (Day 6) was 241.8 mm^3, the “Volume of Tumor (mm^3, Average, n = 4)” value (Day 8) was 320.3 mm^3 and the “Volume of Tumor (mm^3, Average, n = 4)” value (Day 10) was 371.2 mm^3. For the same molecule, the “Volume of Tumor (mm^3, Average, n = 4)” value (Day 12) was 476.0 mm^3, the “Volume of Tumor (mm^3, Average, n = 4)” value (Day 14) was 542.7 mm^3 and the “Volume of Tumor (mm^3, Average, n = 4)” value (Day 16) was 610.7 mm^3. The “Volume of Tumor (mm^3, Average, n = 4)” value (Day 18) was 702.9 mm^3, the “Volume of Tumor (mm^3, Average, n = 4)” value (Day 20) was 847.8 mm^3 and the “Volume of Tumor (mm^3, Average, n = 4)” value (Day 22) was 907.4 mm^3. The “Volume of Tumor (mm^3, Average, n = 4)” value (Day 24) was 996.7 mm^3 and the “Tumor Inhibition Rate (%)” value (calculated from tumor volumes on day 0 and day 24 versus PBS control, HCT-116 xenograft mice) was 8.10%.
